Here are results for 61 compounds from a melting point compilation (Tetko et al.; mined from patent text by program, amines drawn as free bases though some values may be those of a salt).

One may read the melting point as the temperature, or range, at which the solid turns liquid.

On to `CCC(CC)Nc1c(Br)c(CBr)nc2c1nnn2-c1c(C)cc(C)cc1C`, for which the melting point lay within 115 to 117 °C.

`Cc1nc2c3c(c(C(=O)N4CCC(O)C4)cc2n1C)CCC(c1ccccc1)O3` (stereo unspecified): the melting point fell in the range of 322 to 324 °C.

In turn, `COc1cc2c(cc1OC)CN(CCCCc1ccc(NC(=O)c3cccc4c(=O)cc(-c5ccccc5)[nH]c34)cc1)CC2` gave a melting point of 204 °C.

The compound `CCN(C)c1nc2ccccc2n2cnc(-c3nc(C4CC4)no3)c12` came in with a melting point of 96 to 97 °C.

Compound `CCN(CC)CCCn1[nH]c(C)c2c(=O)nc(-c3ccncc3)nc1-2` returned a melting point of 164 to 166 °C.

In turn, `CCC(C(CC(=O)OC)c1ccc(Cl)cc1Cl)[N+](=O)[O-]` (stereo unspecified) had a melting point of 234 to 237 °C.

In turn, `CC(C)CN(CC(C)C)c1ccc(NC(=O)N(C[C@H]2CC[C@H](CN(C(=O)Nc3ccc(N(CC(C)C)CC(C)C)cc3)C3CCCCC3)CC2)C2CCCCC2)cc1` showed a melting point of 140 to 142 °C.

In the case of `Cc1ccc(NC(=O)c2cnn3c(C(F)(F)F)cc(-c4ccc(C(F)(F)F)cc4)nc23)cc1S(N)(=O)=O`, the melting point came to 297 °C.

`O=C(NCc1ccccc1)c1ccc(OC2SCC(O)C(O)C2O)cn1` (stereo unspecified) displayed a melting point of 89 to 91 °C.

The compound `Cn1ncnc1COc1nc2c(cc1-c1ccccc1)nnn2-c1ccccc1` registered a melting point of 153 to 156 °C.

`CCOC(=O)CCc1cn(Cc2cc(OCc3nc(-c4ccccc4)oc3C)no2)nc1OCC`: the melting point fell in the range of 82 to 83 °C.

`Cc1cccc(-c2n[nH]cc2-c2ccc(F)c(-c3c[nH]c(C(C)(C)O)n3)c2)n1` registered a melting point of 135 to 137 °C.

For the compound `Cc1csc(C(=O)c2[nH]c3cc(Cl)ccc3c2CC(=O)O)n1`, the melting point lay within 239 to 240 °C.

Take `N#Cc1cccnc1N1CCN(CC(=O)Nc2ccc(F)c(Cl)c2)CC1`: the melting point lay within 137 to 140 °C.

On to `COC(=O)C(O)=CC(=O)c1cn(Cc2ccccc2)cc(Cc2ccccc2)c1=O`, for which the melting point fell in the range of 148 to 150 °C.

In turn, `O=C(NCc1ccc(F)c(F)c1)c1ccnc(N2CCN(Cc3ccccn3)C2=O)c1` came in with a melting point of 143 to 145 °C.

In turn, `CC(=O)N(C)c1c(I)c(NC(=O)CCCCCCCC(=O)O)c(I)c(C(=O)O)c1I` gave a melting point of 205 to 208 °C.

Compound `CN1C(=O)[C@@H](CN2CCCCC2)C[C@H]1c1ccc(Br)s1` returned a melting point of 69 to 71 °C.

For `CCOC(=O)c1cnc2ccc(CC3CCOCC3)cc2c1O`, the melting point lay within 275 to 280 °C.

In turn, `CCn1ncnc1COc1nn2c(-c3cc(F)ccc3F)nncc2c1C(C)(C)C` came in with a melting point of 108 °C.

In the case of `CCCCOCCCn1c(CCCC)nc2c(N)nc3cccnc3c21`, the melting point was in the range of 101 to 102 °C.

In turn, `NCCCCCCO[PH](=O)CC(=O)O` (stereo unspecified) displayed a melting point of 236 to 238 °C.

As for `Cc1ccc(S(=O)(=O)CCC2OCCO2)cc1`, the melting point lay in the range of 78 to 80 °C.

The compound `CS(=O)c1[nH]cc(CCc2ccccc2)c1[N+](=O)[O-]` (stereo unspecified) yielded a melting point of 172 to 173 °C.

Turning to `Nc1cnc2c(NC(=O)c3c(Cl)cccc3Cl)cccc2c1-n1ccnc1`, the melting point was above 250 °C.

The compound `COc1ccc(C(=O)Oc2ccc(C(=O)O)c(C)c2)cc1C12CC3CC(CC(C3)C1)C2` returned a melting point of 236 to 237 °C.

`O=c1[nH]c(=S)c2[nH]cnc2n1Cc1ccc(Cl)cc1` gave a melting point of 274 to 278 °C.

On to `O=S(=O)(/C=C/c1ccc(Cl)cc1)Nc1ccc(F)cc1`, for which the melting point is 105 to 107 °C.

On to `Clc1cc(-c2cc3ccccc3s2)nc2ccccc12`, for which the melting point fell in the range of 142 to 145 °C.

Compound `CN(C)S(=O)(=O)c1cc2c(O)cccc2o1` showed a melting point of 150 to 153 °C.

In turn, `CCc1ccc([N+](=O)[O-])cc1CNC(C)=O` displayed a melting point of 123 to 128 °C.

As for `COC(=O)Nn1c(N)c(C#N)c(C)c1-c1ccccc1`, the melting point was 178 to 179 °C.

Turning to `CCOc1nc2ccccc2nc1N(CC)C(=O)N1CCN(c2cc(Cl)cc(Cl)c2)CC1`, the melting point lay within 115 to 117 °C.

Turning to `Nc1ccc(Oc2ccc(Oc3ccc(Oc4ccc(Oc5ccc(N)cc5)cc4)cc3)cc2)cc1`, the melting point was found to be 170 °C.

In turn, `N#Cc1cccnc1N1CCN(CC(=O)Nc2ccccc2F)CC1` registered a melting point of 78 to 79 °C.

Turning to `CCOC(=O)CCNC(=O)N1CCn2c(c(C(N)=O)c(Cl)c2-c2ccccc2)C1`, the melting point was 50 to 60 °C.

In turn, `CCC(=O)NCCC1=CCc2cc(Br)c(OC)cc21` displayed a melting point of 106 to 109 °C.

Compound `O=C(NC1N=C(c2ccccc2F)c2ccccc2NC1=O)OCc1ccccc1` (racemic) gave a melting point of 208 °C.

Compound `Cc1ccc2c(Sc3ccc(Cl)c(Cl)c3)c(C(=O)O)[nH]c2c1` displayed a melting point of 252 to 255 °C.

Take `O=c1nc(-c2ccnc(OCc3ccccc3)c2)sc2ccccc12`: the melting point stood at 116 °C.

`O=C(Nc1cc(F)ccc1F)c1cc(-c2ccc(F)cc2F)ccc1O` returned a melting point of 213 to 214 °C.

The compound `CC(C#Cc1cccc(Oc2ccsc2)c1)N(O)C(N)=O` (stereo unspecified) had a melting point of 93 to 95 °C.

Regarding `O=S(=O)(O)c1ccc(NCc2ccccc2F)cc1`, the melting point was above 270 °C.

In the case of `CCOP(=O)(OCC)c1nc(NC2CC(C)(C)NC(C)(C)C2)nc(NC2CC(C)(C)NC(C)(C)C2)n1`, the melting point worked out at 195 °C.

Take `Cc1cccc(C2SC3(CCN(C(=O)Oc4ccccc4)CC3)c3ccccc32)c1` (stereo unspecified): the melting point was 154 to 157 °C.

In turn, `O=C(O)c1cc([N+](=O)[O-])ccc1C(=O)c1ccccc1` yielded a melting point of 176 to 179 °C.

For `CCCCCCC(=O)C=Cc1ccc(O)c(O)c1`, the melting point is 114 to 115 °C.

The compound `COC(=O)c1cc(C#N)ccc1NC(=O)c1cccc(S(=O)(=O)N2CCOCC2)c1` returned a melting point of 184 to 185 °C.

Consider `CCOC(=O)C(C)c1csc(=Nc2ccccc2)n1C` (stereo unspecified), for which the melting point fell in the range of 80 to 81 °C.

Compound `CCOCc1cc2ccccc2oc1=Nc1ccc(CC)cc1` gave a melting point of 104 to 105 °C.

The compound `CC(C)(C)NCCCCOc1ccccc1C(=O)Nc1cccc2[nH]ccc12` gave a melting point of 147 °C.

Consider `COc1ccc(S(=O)(=O)Nc2ccccc2/C=C/c2ccccn2)cc1`, for which the melting point lay within 137 to 142 °C.

Turning to `COc1cccc(NC(=O)NC2N=C(c3ccccc3)c3ccccc3N(CCN(C)C)C2=O)c1` (stereo unspecified), the melting point lay in the range of 213 to 215 °C.

In turn, `CC(C)(C)C(=O)Nc1ccc(Cl)cc1C(=O)C[C@H]1C(=O)OCN1C(=O)OCc1ccccc1` displayed a melting point of 113 to 116 °C.

On to `C[C@H]([C@](O)(Cn1cncn1)c1ccc(F)cc1F)S(N)(=O)=O`, for which the melting point lay in the range of 195 to 197 °C.

Compound `COc1cc(C(C)=O)ccc1OCCCCCN1CCC(C(O)(c2ccc(F)cc2)c2ccc(F)cc2)CC1` showed a melting point of 118 °C.

Take `CC(c1cc2ncnc(Cl)c2[nH]1)c1oc2ccccc2c(=O)c1-c1cccc(F)c1` (stereo unspecified): the melting point was in the range of 166 to 168 °C.

`Cc1cccc(Nn2c(-c3ccccc3)c(C(C)C)[nH]c2=S)c1` registered a melting point of 220 to 222 °C.

The compound `CC1(C)OC(=C(C#N)C#N)C(C#N)=C1c1ccc(C#C[Si](C)(C)C)cc1` came in with a melting point of 201 °C.

On to `CCCCCCCCCCCCCCOc1ccc(C(=O)NCc2ccccn2)cc1`, for which the melting point lay in the range of 91 to 93 °C.

Compound `Cc1cc(=O)oc2c(C)c3c(cc12)CCCO3` displayed a melting point of 162 to 163 °C.
